From publication PMC10914734 (Signal Transduction and Targeted Therapy, 2024)
Where two headings read alike, the source gives them in different places.

Tests used:
HCoV-OC43 = experiment: Protective effect against HCoV-OC43 infection in newborn mice; type: in vivo
Protocol: We also further assessed the in vivo antiviral activity of compound 14b against HCoV-OC43 infection in a mouse model. In the HCoV-OC43 infection mouse model, we treated newborn mice with 14b at a dose of 5 mg/kg by intraperitoneal injection 24 h after challenge with HCoV-OC43 at 100 TCID50.
Protective effect of 14b against HCoV-OC43 in vivo was assessed as previously reported.[45] All newborn mice were challenged with HCoV-OC43 (100 TCID50) by intranasal administration. For mice in the 14b-treated group, 14b (5 mg/kg) in a proper solution (1% dimethyl sulfoxide, 9% polyethylene glycol 300, and 90% aqueous solution containing 28% (w/v) hydroxypropyl β-cyclodextrin, volume ratio) was given by intraperitoneal injection. Mice in the viral control group were treated with PBS. Body weight and survival rate of these mice were then observed up to the 15th day post-infection.

HCoV-229E PsV = experiment: microbe, parasite or virus in culture; type: cell-based; details: Human coronavirus 229E, Huh-7, read-out: EC50, HCoV-229E PsV
Pharmacokinetics in rats = type: in vivo; details: for AUC(0-t) / Cmax / Tmax / bioavailability / half-life / AUC(0-inf) / MRT inf / clearance: male, SD, rat, plasma; for AUC(0-inf): read-out: AUCINF_obs; for MRT inf: read-out: MRTINF_obs
B.1.617.2 (Delta) = experiment: microbe, parasite or virus in culture; type: cell-based; details: Severe acute respiratory syndrome coronavirus 2, Vero C1008, read-out: EC50, SARS-CoV-2 B.1.617.2 (Delta)
B.1.351 (Beta) = experiment: microbe, parasite or virus in culture; type: cell-based; details: Severe acute respiratory syndrome coronavirus 2, Vero C1008, read-out: EC50, SARS-CoV-2 B.1.351 (Beta)
SARS-CoV-2 PsV = type: cell-based; details: 500 nM

| SMILES | EC50 (HCoV-229E PsV) | Vss_obs (Pharmacokinetics in rats; i.v. (5 mg/kg)) | AUC(0-t) (Pharmacokinetics in rats; ip, i.p. (5 mg/kg)) | Cmax (Pharmacokinetics in rats; ip, i.p. (5 mg/kg)) | Tmax (Pharmacokinetics in rats; ip, i.p. (5 mg/kg)) | bioavailability (Pharmacokinetics in rats; ip, i.p. (5 mg/kg)) | half-life (Pharmacokinetics in rats; ip, i.p. (5 mg/kg)) | AUC(0-inf) (Pharmacokinetics in rats; ip, i.p. (5 mg/kg)) | MRT inf (Pharmacokinetics in rats; ip, i.p. (5 mg/kg)) | AUC(0-t) (Pharmacokinetics in rats; iv, i.v. (5 mg/kg)) | clearance (Pharmacokinetics in rats; iv, i.v. (5 mg/kg)) | half-life (Pharmacokinetics in rats; iv, i.v. (5 mg/kg)) | AUC(0-inf) (Pharmacokinetics in rats; iv, i.v. (5 mg/kg)) | MRT inf (Pharmacokinetics in rats; iv, i.v. (5 mg/kg)) | AUC(0-t) (Pharmacokinetics in rats; po, p.o. (10 mg/kg)) | Cmax (Pharmacokinetics in rats; po, p.o. (10 mg/kg)) | Tmax (Pharmacokinetics in rats; po, p.o. (10 mg/kg)) | bioavailability (Pharmacokinetics in rats; po, p.o. (10 mg/kg)) | half-life (Pharmacokinetics in rats; po, p.o. (10 mg/kg)) | AUC(0-inf) (Pharmacokinetics in rats; po, p.o. (10 mg/kg)) | further results |
| --- | --- | --- | --- | --- | --- | --- | --- | --- | --- | --- | --- | --- | --- | --- | --- | --- | --- | --- | --- | --- | --- |
| O=C(NCc1ccccc1)C(=O)[C@H](C[C@@H]1CCCNC1=O)NC(=O)[C@H](CC1CCCCC1)NC(=O)c1cc2ccccc2o1 [14b, N-((S)-1-(((S)-4-(benzylamino)-3,4-dioxo-1-((S)-2-oxopiperidin-3-yl)butan-2-yl)amino)-3-cyclohexyl-1-oxopropan-2-yl)benzofuran-2-carboxamide] | 13.1 ± 6.26 nM | 2.28 ± 0.184 L/kg | 9300 ± 994 ng·h/mL | 1630 ± 99 ng/mL | 0.25 h | 249% | 8.24 ± 1.72 h | 10600 ± 557 ng·h/mL | 10.6 ± 1.8 h | 4220 ± 189 ng·h/mL | 19.6 ± 0.9 mL/min/kg | 5.11 ± 0.1 h | 4250 ± 188 ng·h/mL | 1.94 ± 0.12 h | 2620 ± 250 ng·h/mL | 982 ng/mL | 0.33 ± 0.14 h | 32% | 3.86 h | 2680 ng·h/mL | Body weight of infected mice (HCoV-OC43; HCoV-OC43 100 TCID50, 5 mg/kg intraperitoneal injection): either mildly decreased or rapidly recovered; Final survival rate (HCoV-OC43; HCoV-OC43 100 TCID50, 5 mg/kg intraperitoneal injection 24 h after challenge): 60%; MRT inf (Pharmacokinetics in rats; po, p.o. (10 mg/kg)): 3.95 ± 1.27 h; EC50 (B.1.617.2 (Delta)): 28.6 ± 3.79 nM; EC50 (B.1.351 (Beta)): 58.1 ± 1.07 nM; Antiviral activity by time of addition (SARS-CoV-2 PsV): lost most of their antiviral activity |
| O=C(NCc1ccccc1)C(=O)[C@H](C[C@@H]1CCCNC1=O)NC(=O)[C@H](Cc1ccc(F)cc1)NC(=O)c1cc2ccccc2o1 [14a, N-((S)-1-(((S)-4-(benzylamino)-3,4-dioxo-1-((S)-2-oxopiperidin-3-yl)butan-2-yl)amino)-3-(4-fluorophenyl)-1-oxopropan-2-yl)benzofuran-2-carboxamide] | 18.8 ± 4.18 nM | 1.3 ± 0.15 L/kg | 4760 ng·h/mL | 2080 ng/mL | 0.25 h | 115% | 4.14 h | 4760 ng·h/mL | 1.9 h | 4110 ± 756 ng·h/mL | 20.6 ± 3.4 mL/min/kg | 6 ± 0.75 h | 4130 ± 756 ng·h/mL | 1.08 ± 0.07 h | 1050 ± 276 ng·h/mL | 416 ng/mL | 0.75 ± 0.84 h | 13% | 2.52 h | 1060 ng·h/mL | MRT inf (Pharmacokinetics in rats; po, p.o. (10 mg/kg)): 2.06 ± 0.49 h; EC50 (B.1.617.2 (Delta)): 11 ± 1.8 nM; EC50 (B.1.351 (Beta)): 162 ± 5.3 nM; Antiviral activity by time of addition (SARS-CoV-2 PsV): lost most of their antiviral activity |
